Literature values in patent US8163312B2, “Herbal formulation for prevention and treatment of diabetes and associated complications” (Innoveda Biological Solutions (P) Ltd., priority 2008, dated 2012).

Tests used:
PPAR-alpha = target: T1, PPAR-alpha (Homo sapiens, UniProt Q07869); details: selective PPAR-alpha antagonist added
T1 construct: host or cells: human embryonic kidney 293 cells
T1 sequence (Q07869 1-468): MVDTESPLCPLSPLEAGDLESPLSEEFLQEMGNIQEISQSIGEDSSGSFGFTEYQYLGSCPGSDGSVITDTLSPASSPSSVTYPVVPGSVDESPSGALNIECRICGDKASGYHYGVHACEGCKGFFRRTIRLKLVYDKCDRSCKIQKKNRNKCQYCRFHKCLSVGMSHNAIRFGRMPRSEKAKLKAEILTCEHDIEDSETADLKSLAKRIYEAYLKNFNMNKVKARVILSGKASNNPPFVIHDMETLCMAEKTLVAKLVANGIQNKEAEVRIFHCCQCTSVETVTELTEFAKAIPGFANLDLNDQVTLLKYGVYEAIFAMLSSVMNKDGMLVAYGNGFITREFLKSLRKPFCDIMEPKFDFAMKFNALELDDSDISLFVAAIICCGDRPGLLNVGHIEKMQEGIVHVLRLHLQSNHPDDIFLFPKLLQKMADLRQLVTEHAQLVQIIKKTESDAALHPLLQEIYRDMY

mice = details: sanjoinine-A given as one unit
[1] = system: alloxan induced diabetic rats

Compound	relative sedative potency (mice)	further results
CC(C)c1ccc2c(c1)c(SC(C)(C)C)c(CC(C)(C)C(=O)O)n2Cc1ccc(Cl)cc1 [MK-886]		effects of SO extract and mangiferin on PPAR-alpha luciferase and lipoprotein lipase (PPAR-alpha): completely suppressed
CN(C)CCCN1c2ccccc2Sc2ccc(Cl)cc21 [chlorpromazine]	5	
COc1cc(/C=C/C(=O)CC(=O)/C=C/c2ccc(O)c(OC)c2)ccc1O [curcumin]		activity of SDH (sorbitol dehydrogenase) [1]: lowered significantly; blood sugar, Hb and glycosylated hemoglobin levels [1]: reduced; oxidative stress (levels of TBRAS) [1]: reduced the oxidative stress
COc1cc2ccnc3c2c(c1OC)-c1ccccc1C3=O [lysicamine]	6.5	
CC(C)C[C@@H]1NC(=O)[C@@H](NC(=O)[C@H](Cc2ccccc2)N(C)C)[C@H](C(C)C)Oc2ccc(cc2)/C=C\NC1=O [sanjoinine-A]	one	
sanjoinine-Ahl	3	
